According to PMC6936879, “Inhibiting the copper efflux system in microbes as a novel approach for developing antibiotics” (PLoS ONE, 2019):

Legend:
E. coli (BL21) = test: Kirby-Bauer test (disc diffusion); format: cell-based; conditions: 2 mm radius discs, LB petri dishes, 37 °C overnight
E. coli (BL21;DE3) [1] = test: E. coli viability assay (LIVE/DEAD fluorescence imaging); format: cell-based; conditions: peptide 125 μM; LIVE/DEAD staining, M9 medium, confocal imaging, cell counts with ImageJ; mean ± SE, n = 3
Protocol: E. coli (BL21;DE3) were dyed using the L7007 LIVE/DEAD Bacterial Viability kit (Molecular Probes, Eugene OR, USA); microbes were grown in M9 medium. Images were acquired on a Leica SP8 confocal microscope, running LASX acquisition software. The magnification consisted of a 63 X 1.4 NA objective. Microbes were counted using ImageJ software. Error calculations were based on three repetitions, with each experiment scanned at nine different tiles—all together, 27 repetitions.
Live/dead fluorescence cell imaging experiments were used to indicate bacterial viability when incubated with the peptides. This method also helped to determine whether the decrease in the growth rate described above resulted from deceleration in E. coli growth or its substantial death. E coli were grown to the late […] phase (according to the growth rate lines; Figs B to D in S1 File) in the presence of the peptides in poor medium (M9), which mostly resembles physiological conditions.[52–54] Glucose levels in the growth media were sufficient to prevent bacterial viability loss due to lack of nutrition, yet not too high to positively affect its viability. […] However, the effect of the peptides was not as substantial as the commercially available antibiotic kanamycin. […] 5 ± 4.3% and up to 45.3 ± 4.3% reduction at a concentration of 125 μM.
Fig 4 Effect of the test peptides on E. coli viability. […]

E. coli (BL21;DE3) [2] = test: E. coli growth rate experiment (O.D. 600 nm) under copper stress; format: cell-based; conditions: M9 medium, 37 °C, value after 14 h incubation, 5 μM Cu(II) chloride in assay (sentence does not say with or without Cu(II)), mean ± SE, n = 5
Protocol: E. coli (BL21;DE3) growth rates were evaluated in 96-well microplates: in 200 μl of a poor medium comprising M9 medium. Incubation was for 16 h at 37°C with Copper(II) chloride (Sigma-Aldrich, St. Louis, MO, USA) at a concentration of 5 μM. Absorbance at 600 nm was measured every 30 min after stirring for 5 s in a 96-well plate reader (SPL Life Sciences, Gyeonggi, Korea). The buffer background was auto-subtracted. Each experiment was repeated five times under identical conditions.
Next, E. coli were grown in M9 medium for 16 h, and their growth rate was evaluated in the absence and presence of Cu(II) in the medium. In each sample, a different peptide was introduced to the medium, with the kanamycin as a positive control. […] Growth rate values for all peptides at various concentrations after 14 h of incubation are presented in Fig 3 (the growth rate curves are presented in Figs E to F in S1 File).
Fig 3 Effect of test peptides on the E. coli growth rate. E. coli cultures were grown as described in Methods. The growth rate values after a 14 h incubation in the medium in the presence (gray lines) and absence (black lines) of Cu(II). Concentrations of the test peptides: A. 50 μM, B. 75 μM, C. 100 μM, and D. 125 μM. *p < 0.05, MEAN ± SE, n = 5, a comparison between the values in the presence and absence of Cu(II). #p < 0.05, MEAN ± SE, n = 5, in the presence of Cu(II) and comparing between values of a buffer and peptide. t-test was used for the statistic evaluation.

[3] = format: physicochemical; conditions: chemical stability; peptides diluted to 150 mM solution in double-distilled water, incubated at 37 °C for 24 h; ESI-MS spectra before and after incubation
Text: We hypothesized that peptides would penetrate into E. coli and bind to CusB, interfere with its physiological dimerization, and thereby induce non-physiological structural changes or inhibit physiological structural changes in the transporter in response to extended levels of Cu(I). Thus, E. coli will lose its ability to be protected by copper-mediated oxidative stress, resulting in the death of the bacteria. Unlike CusB, CueO has homologs in human cells (Superoxide dismutase, SOD), and the main role in this study is to affect the CusCFBA efflux system regardless to CueO function, all measurements were carried out with an active CueO. First, we verified whether all ten peptides were stable under physiological conditions via incubation at 37°C for 24 h by ESI-MS analysis (Figs B to D in S1 File). Peptides 2–10 were stable under these given conditions, whereas peptide 1 was unstable.
Validation of the peptides stability using ESI-MS
In order to confirm the stability of the peptides, them were diluted to 150 mM solution in double-distilled
water, then incubated at 37 °C for 24 hr.
S2 before the incubation (Figure S2A) and after the incubation (Figure S2B). All peptides besides pep1
Fig B: ESI-MS. ESI-MS spectra for pep1 and pep2, left panel presents the spectra after peptide
(1 picture or pasted object on this page, not shown here)

[4] = disc solution 50 µM in 0.85% NaCl
[5] = disc solution 75 µM in 0.85% NaCl
[6] = disc solution 100 µM in 0.85% NaCl
[7] = disc solution 125 µM in 0.85% NaCl

Compound	r, radius of bacteria killing formed over petri dishes by peptide-solution discs (E. coli (BL21); [4]) [mm]	r, radius of bacteria killing formed over petri dishes by peptide-solution discs (E. coli (BL21); [5]) [mm]	r, radius of bacteria killing formed over petri dishes by peptide-solution discs (E. coli (BL21); [6]) [mm]	r, radius of bacteria killing formed over petri dishes by peptide-solution discs (E. coli (BL21); [7]) [mm]	reduction of bacterial viability (E. coli (BL21;DE3) [1]) [%]	decrease in O.D. (600 nm) (E. coli (BL21;DE3) [2]; peptide 50 μM) [%]	decrease in O.D. (600 nm) (E. coli (BL21;DE3) [2]; peptide 100 μM) [%]	stability under physiological conditions (ESI-MS) [3]
NC[C@H]1O[C@H](O[C@H]2[C@H](O)[C@@H](O[C@H]3O[C@H](CO)[C@@H](O)[C@H](N)[C@H]3O)[C@H](N)C[C@@H]2N)[C@H](O)[C@@H](O)[C@@H]1O [Kanamycin, kanamycin, reference compound]	2.5	2.5	2.5	2.5				
KIQGMDPVWVT [pep2]	0	0	0	0				
IQGMD [pep5]	0	0.5	1	2	45.3 ± 4.3	54.5 ± 4.2	77.2 ± 6.4	
DPVWVTA [pep4]	0	0	0	0				
PVWV [pep10]	0	0	0.5	1.5				
AKIQGM [pep3]	0	0	0	0				
VWVTA [pep7]	0	0	0	0				
MDPV [pep9]	0	0.5	0.5	1.5				
GMDPVW [pep6]	0	0	0	0				
AKIQGMDPVWVTA [pep1, 13-amino acid parent peptide […] mimicking CusB residues 236-248]								unstable
